Measurements as given in ChEMBL document CHEMBL1201862, “PubChem BioAssay data set” (2004).
Values joined by “and” are separate entries in the source; they are usually repeats but may differ in a detail not shown here. Equal values may be shown once.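 Each compound was tested at five concentrations against cells in 96-well plates for 48 hours. GI50 marks 50% less growth.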 Active and inactive are the calls of the source. Cut-off read from the data, not from the text of the source: active = GI50 up to about 1.1 µM and inactive = higher.

What was measured:
Assay in all cases: DTP human tumour cell line panel, 48 h
HT-29 = test system: HT-29
LOX IMVI = test system: LOX IMVI
OVCAR-5 = test system: OVCAR-5
SW-620 = test system: SW-620
SF-268 = test system: SF-268
786-0 = test system: 786-0
COLO 205 = test system: COLO 205
HOP-62 = test system: HOP-62
NCI-H23 = test system: NCI-H23
KM12 = test system: KM12
UACC-257 = test system: UACC-257
MOLT-4 = test system: MOLT-4
TK-10 = test system: TK-10
UACC-62 = test system: UACC-62
SK-MEL-5 = test system: SK-MEL-5
SK-OV-3 = test system: SK-OV-3
A498 = test system: A498

Measured: GI50

CN(/C(=N\O)c1ccccc1)c1ccccc1
inactive: HT-29 30.5 µM | LOX IMVI 22.6 µM | OVCAR-5 88.9 µM | SW-620 32.2 µM | SF-268 28.1 µM | 786-0 21.7 µM | COLO 205 95.9 µM | HOP-62 22.9 µM | NCI-H23 24.4 µM | KM12 36.3 µM | UACC-257 38.6 µM

C=C(C(=C)N1N=NC2C3CCC(C3)C21)N1N=NC2C3CCC(C3)C21 (centres undefined)
inactive: HT-29 > 100 µM | LOX IMVI 68.5 µM | OVCAR-5 > 100 µM | SW-620 > 100 µM | SF-268 > 100 µM | 786-0 > 100 µM | MOLT-4 41.1 µM | TK-10 > 100 µM | COLO 205 > 100 µM | UACC-62 > 100 µM | HOP-62 > 100 µM | NCI-H23 > 100 µM | KM12 > 100 µM | UACC-257 > 100 µM | SK-MEL-5 > 100 µM

CNS(=O)(=O)NN(C)S(=O)(=O)c1ccc2ccccc2c1
inactive: HT-29 > 100 µM | LOX IMVI > 100 µM | SK-OV-3 > 100 µM | SW-620 > 100 µM | 786-0 > 100 µM | MOLT-4 > 100 µM | TK-10 > 100 µM | COLO 205 > 100 µM | UACC-62 > 100 µM | A498 > 100 µM | HOP-62 > 100 µM | NCI-H23 > 100 µM | KM12 > 100 µM | UACC-257 > 100 µM | SK-MEL-5 > 100 µM

CCCC(=O)N[C@@H](Cc1cc(I)c(O)c(I)c1)C(=O)NCCCNCCCCNCCCNC(=O)[C@@H](N)CCCN=C(N)N
inactive: HT-29 > 100 µM | LOX IMVI 94 µM | SW-620 > 100 µM | SF-268 > 10 µM | 786-0 73.3 µM | MOLT-4 71.6 µM | TK-10 > 100 µM | COLO 205 40.6 µM | UACC-62 44.9 µM | HOP-62 33.8 µM | NCI-H23 31.4 µM | KM12 55 µM | UACC-257 > 100 µM | SK-MEL-5 36.6 µM

Cc1ccc(S(=O)(=O)c2ccccc2[N+](=O)[O-])cc1
inactive: HT-29 > 100 µM | OVCAR-5 > 100 µM | SK-OV-3 > 100 µM | SW-620 > 100 µM | 786-0 > 100 µM | MOLT-4 66.7 µM | TK-10 > 100 µM | UACC-62 37.4 µM | A498 > 100 µM | HOP-62 92.3 µM | NCI-H23 55.2 µM | KM12 > 100 µM | UACC-257 72.6 µM | SK-MEL-5 52.1 µM

O=C1c2cccc(O)c2C(=O)c2c(O)cccc21 [DANTHRON]
inactive: HT-29 35.8 µM | LOX IMVI 55.8 µM | OVCAR-5 > 100 µM | SK-OV-3 > 100 µM | SW-620 64.1 µM | SF-268 > 100 µM | 786-0 > 100 µM | MOLT-4 40.1 µM | TK-10 > 100 µM | COLO 205 22 µM | UACC-62 16 µM | A498 17.9 µM | HOP-62 > 100 µM | NCI-H23 > 100 µM | KM12 > 100 µM | UACC-257 85.1 µM

O=C(O)c1ccc(O)c(/N=N/c2cc(S(=O)(=O)O)c3ccccc3c2O)c1
inactive: HT-29 50.7 µM | LOX IMVI > 100 µM | OVCAR-5 > 100 µM | SK-OV-3 > 10 µM | SW-620 > 100 µM | SF-268 > 10 µM | 786-0 > 100 µM | MOLT-4 > 100 µM | TK-10 > 100 µM | COLO 205 39.8 µM | A498 > 100 µM | HOP-62 19.6 µM | NCI-H23 > 100 µM | KM12 > 100 µM | UACC-257 > 10 µM | SK-MEL-5 > 100 µM

Fc1ccc2c(c1)SC1Oc3ccccc3-c3c1c-2nn3-c1ccccc1 (centres undefined)
inactive: HT-29 > 100 µM | LOX IMVI > 100 µM | OVCAR-5 > 100 µM | SK-OV-3 > 100 µM | SW-620 > 100 µM | SF-268 > 100 µM | 786-0 > 100 µM | MOLT-4 > 100 µM | TK-10 > 100 µM | COLO 205 > 100 µM | A498 > 100 µM | HOP-62 30.4 µM | NCI-H23 > 100 µM | KM12 > 100 µM | UACC-257 > 100 µM

COc1ccc(CN2CC(C)(C)C2=O)c(OC)c1
inactive: HT-29 > 100 µM | LOX IMVI > 100 µM | SK-OV-3 > 100 µM | SW-620 > 100 µM | SF-268 > 100 µM | 786-0 > 100 µM | MOLT-4 > 100 µM | TK-10 > 100 µM | COLO 205 > 100 µM | UACC-62 > 100 µM | A498 > 100 µM | HOP-62 > 100 µM | NCI-H23 > 100 µM | KM12 > 100 µM | UACC-257 > 100 µM | SK-MEL-5 > 100 µM

Cn1c(=O)c(C(=O)NC23CC4CC(CC(C4)C2)C3)c(O)c2ccccc21
inactive: HT-29 15.8 µM | LOX IMVI 43.4 µM | SK-OV-3 20.9 µM | SW-620 56.1 µM | SF-268 74.5 µM | 786-0 14.3 µM | MOLT-4 > 100 µM | TK-10 23.8 µM | COLO 205 46.1 µM | UACC-62 53.7 µM | HOP-62 21.8 µM | NCI-H23 67.9 µM | KM12 > 100 µM | UACC-257 28.8 µM

C/C(CC(=O)Nc1ccc(C)c(C)c1)=N\NC(N)=S
inactive: HT-29 > 100 µM | LOX IMVI > 100 µM | OVCAR-5 > 100 µM | SK-OV-3 > 100 µM | SW-620 > 100 µM | SF-268 > 100 µM | 786-0 > 100 µM | MOLT-4 > 100 µM | TK-10 > 100 µM | COLO 205 > 100 µM | UACC-62 > 100 µM | HOP-62 > 100 µM | NCI-H23 > 100 µM | KM12 > 100 µM | UACC-257 > 100 µM | SK-MEL-5 > 100 µM

O=C1OC(O)C(Oc2ccc(Cl)cc2)=C1Cl (centres undefined)
inactive: HT-29 > 100 µM | LOX IMVI > 100 µM | OVCAR-5 > 100 µM | SK-OV-3 > 100 µM | SW-620 > 100 µM | SF-268 > 100 µM | 786-0 > 100 µM | MOLT-4 > 100 µM | TK-10 > 100 µM | COLO 205 > 100 µM | UACC-62 > 100 µM | A498 > 100 µM | HOP-62 > 100 µM | NCI-H23 > 100 µM | KM12 > 100 µM | UACC-257 > 100 µM

COc1ccc2cc3nc(O)cc(O)c3cc2c1OC
inactive: HT-29 > 100 µM | LOX IMVI > 100 µM | OVCAR-5 > 100 µM | SW-620 > 100 µM | SF-268 > 100 µM | 786-0 > 100 µM | MOLT-4 > 100 µM | TK-10 > 100 µM | UACC-62 > 100 µM | A498 > 100 µM | HOP-62 > 100 µM | NCI-H23 > 100 µM | KM12 > 100 µM | UACC-257 > 100 µM

Nc1ncnc2c1N=CN(Oc1ccccc1)N2
inactive: HT-29 > 100 µM | OVCAR-5 > 100 µM | SK-OV-3 > 100 µM | SW-620 > 100 µM | 786-0 > 100 µM | MOLT-4 > 100 µM | TK-10 > 100 µM | COLO 205 > 100 µM | UACC-62 > 100 µM | NCI-H23 > 100 µM | KM12 > 100 µM | UACC-257 > 100 µM | SK-MEL-5 > 100 µM

O=C(CC1(O)C(=O)Nc2ccc(Br)cc21)c1ccc(Cl)cc1Cl (centres undefined)
inactive: HT-29 38.3 µM | OVCAR-5 > 100 µM | SK-OV-3 79.1 µM | SW-620 37.1 µM | SF-268 50.1 µM | 786-0 87.1 µM | MOLT-4 26.3 µM | TK-10 56.2 µM | COLO 205 65.5 µM | UACC-62 17.2 µM | A498 > 100 µM | HOP-62 83.6 µM | NCI-H23 53.2 µM | KM12 52.6 µM | UACC-257 30.9 µM

COC1CC(n2cnc3c(N)ncnc32)OC1CO (centres undefined)
inactive: HT-29 > 100 µM | OVCAR-5 > 100 µM | SW-620 > 100 µM | SF-268 > 100 µM | 786-0 > 100 µM | MOLT-4 > 100 µM | TK-10 > 100 µM | COLO 205 > 100 µM | UACC-62 > 100 µM | HOP-62 > 100 µM | NCI-H23 81.5 µM | KM12 > 100 µM | UACC-257 > 100 µM | SK-MEL-5 > 100 µM

Clc1ccccc1C1=NN(c2ccccc2)C2c3cc(Br)ccc3OCC12 (centres undefined)
inactive: HT-29 > 100 µM | LOX IMVI > 10 µM | OVCAR-5 > 100 µM | SK-OV-3 > 100 µM | SW-620 > 100 µM | SF-268 > 100 µM | 786-0 > 100 µM | MOLT-4 96.4 µM | TK-10 > 100 µM | COLO 205 > 100 µM | A498 > 100 µM | HOP-62 > 100 µM | NCI-H23 > 100 µM | KM12 > 100 µM | UACC-257 > 100 µM

COC1OC(COC(C)=O)C(OC(C)=O)C(OC(C)=O)C1NC(=O)N(CCCl)N=O (centres undefined)
inactive: HT-29 > 100 µM | LOX IMVI 61.4 µM and 47.3 µM | OVCAR-5 > 100 µM | SK-OV-3 > 100 µM | SW-620 > 100 µM | SF-268 26.8 µM and 20.3 µM | 786-0 54.6 µM and 63.4 µM | TK-10 > 100 µM | COLO 205 > 100 µM | UACC-62 26.2 µM and 25.6 µM | A498 > 100 µM | NCI-H23 > 100 µM | KM12 > 100 µM | UACC-257 > 100 µM | SK-MEL-5 > 100 µM
